For series [1], the target named is recombinant human PDK4 (Homo sapiens, UniProt Q16654). The experiment in a line: ADP-Glo kinase assay, PDK4. To be noted: 1.5 µM compound.
Method: (§4) The ability of tested compounds to inhibit the activity of PDK 1–4 isoforms was primarily assessed in cell-free experiments by a chemioluminescent assay, the ADPGlo™ Kinase Assay kit from Promega (Promega Corporation, Madison, WI, USA).
(§5) The in vitro inhibitory activity of tested compounds on recombinant human PDK1-4 isoforms (Abcam, Cambridge, MA, USA) was evaluated by using the ADPGlo™ Kinase Assay kit from Promega (Promega Corporation, Madison, WI, USA) following the instructions of the manufacturer. […] The reaction was then started by the addition of substrate/ATP for 60 min at room temperature. Subsequently, ADP-Glo™ reagent was added and incubated for 40 min prior to kinase detection reagent addition. After 30 min, the luminescence was measured with a Tecan plate reader (Tecan Infinite® M200). Raw data were normalized to the values of control wells and luminescence values for each drug dose were expressed as a percentage of the luminescence of control untreated wells. […] The evaluation was based on means from at least three independent experiments.
Series [2] concerns PSN-1 cells. The experiment in a line: ROS production (CM-H2DCFDA). To be noted: 5 µM test compounds, antimycin 3 µM as positive control. Format: cell-based, human. As to the method:
Consistently, tested compounds, although to different extents, were effective in reducing total cellular sulfhydryl contents in PSN-1-treated cells (Figure 9B).
The production of ROS was measured in PSN-1 cells (10^4 per well) grown for 24 h in a 96-well plate in RPMI medium without phenol red (Sigma Aldrich, Germany). Cells were then washed with PBS and loaded with 10 μM 5-(and-6)-chloromethyl-2′,7′-dichlorodihydrofluorescein diacetate acetylester (CM–H2DCFDA) (Molecular Probes-Invitrogen, Eugene, OR, USA) for 45 min, in the dark. Afterward, cells were washed with PBS and incubated with tested compounds. Fluorescence increase was estimated utilizing the wavelengths of 485 nm (excitation) and 527 nm (emission) in a VICTOR X3 (PerkinElmer, USA) plate reader. Antimycin (3 μM, Sigma Aldrich), a potent inhibitor of Complex III in the electron transport chain, was used as the positive control.

In series [3] the test system is PSN-1 cells. The experiment in a line: Mitochondrial membrane potential (Mito-ID kit). To be noted: IC50 concentrations. It is filed as cell-based, human. The procedure:
The ΔΨ was assayed using the Mito-ID® Membrane Potential Kit according to the manufacturer’s instructions (Enzo Life Sciences, Farmingdale, NY, USA) as previously described. Briefly, PSN-1 cells (8 × 10^3 per well) were seeded in 96-well plates; after 24 h, cells were washed with PBS and loaded with Mito-ID Detection Reagent for 30 min at 37 °C in the dark. Afterward, cells were incubated with tested compounds for 60 min. CCCP (Carbonyl cyanide 3-chlorophenyl-hydrazone) was used as the positive control. Fluorescence intensity was estimated using a VICTOR X3 (PerkinElmer, Waltham, MA, USA) plate reader at 490 (excitation) and 590 nm (emission).

Series [4] has as its system PSN-1 cells. The experiment in a line: 3D spheroid cytotoxicity, acid phosphatase (APH) assay, PSN-1. To be noted: read-out: IC50 ±S.D. PSN-1 (3D cytotoxicity); spheroids, 72 h, APH test.
Method: The PDAC cancer spheroids were treated with tested compounds for 72 h, and cell viability was assessed by means of the acid phosphatase (APH) assay (Table 3).
An APH-modified assay was used for determining cell viability in 3D spheroids, as previously described [61]. Briefly, the pre-seeded spheroids were treated with fresh medium containing the compound to be studied at the appropriate concentration (range 2.5–200 μM). Triplicate cultures were established for each treatment. After 72 h, each well was treated with 100 μL of the assay buffer (0.1 M sodium acetate, 0.1% Triton-X-100, supplemented with ImmunoPure p-nitrophenyl phosphate; Sigma Chemical Co., Ltd.) and, following 3 h of incubation, 10 μL of 1 M NaOH solution was added. […] The mean absorbance for each drug dose was expressed as a percentage of the control untreated well absorbance (T/C) and plotted vs. drug concentration. […] The evaluation was based on means from at least four independent experiments.
In series [5] the target is recombinant human PDK1 (Homo sapiens, UniProt Q15118). The experiment in a line: ADP-Glo kinase assay, PDK1. To be noted: for effect on enzymatic activity of PDK1: 1.5 µM compound, 30 min preincubation.
Sequence of recombinant human PDK1 (Q15118 29-436): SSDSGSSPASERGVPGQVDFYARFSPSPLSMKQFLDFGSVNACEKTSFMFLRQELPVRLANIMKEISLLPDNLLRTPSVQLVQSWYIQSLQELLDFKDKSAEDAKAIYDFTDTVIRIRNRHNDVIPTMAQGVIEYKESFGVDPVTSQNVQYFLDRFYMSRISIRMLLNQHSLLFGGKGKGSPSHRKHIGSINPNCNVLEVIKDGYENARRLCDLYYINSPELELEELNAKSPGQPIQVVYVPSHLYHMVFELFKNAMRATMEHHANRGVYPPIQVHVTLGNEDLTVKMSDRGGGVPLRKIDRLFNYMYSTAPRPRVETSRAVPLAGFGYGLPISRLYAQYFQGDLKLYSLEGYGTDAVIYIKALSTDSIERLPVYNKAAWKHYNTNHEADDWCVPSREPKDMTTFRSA
Method: as §4, §5
Series [6] deals with BxPC-3 cells. The experiment in a line: 3D spheroid cytotoxicity, acid phosphatase (APH) assay, BxPC-3. To be noted: read-out: IC50 ±S.D. BxPC-3 (3D cytotoxicity); spheroids, 72 h, APH test.
Series [7] addresses recombinant human HSP90 (Homo sapiens, UniProt P07900). The experiment in a line: HSP90 inhibition assay (Transcreener ADP kit). It is filed as biochemical. To be noted: 1.5 µM compound (equivalent doses). As to the method: The in vitro inhibitory activity of tested compounds on recombinant human HSP90 was assessed by The Transcreener™ ADP kit (Bellbrook Labs) according to the manufacturer’s protocol. Human recombinant HSP90 protein was incubated with tested compounds in the presence of 250 μM ATP at 37 °C for 30 min, 4°C for 30 min and ATPase activity was stopped via the addition of the stop and detect buffer. Following this, samples were incubated for 1 h at room temperature with the ADP2 Antibody and the ADP Alexa594 Tracer. The fluorescence intensity polarization of samples was measured with a Tecan plate reader (Tecan Infinite® M200). The evaluation was based on means from at least three independent experiments.

Series [8] relates to S232 PDH E1 alpha protein (PDHA1) phosphorylation in PSN-1 cells. The experiment in a line: Cellular PDH phosphorylation (ELISA). It is filed as cell-based, human. To be noted: 24 h, IC50 concentrations. The procedure: As a first step, the ability of representative derivatives to target PDK in intact cancer cells was assessed by evaluating their effect on PDH phosphorylation of PSN-1 cancer cells.
PSN-1 cells (2 × 10^5) were seeded in a six-well plate in growth medium (4 mL). After 24 h, cells were incubated for 24 h with IC50 concentrations of tested compounds. Subsequently, the phosphorylation level of S232 PDH E1 alpha protein (PDHA1) was assessed by ELISA Kit (Abcam) following the manufacturer’s instructions. The amount of phosphorylated S232 PDHA1 protein was detected by measuring the absorbance of each well at 600 nm, using a Bio-Rad 680 microplate reader.

Series [9] has as its system PSN-1 cells. The experiment in a line: Cellular lactate production. It is filed as cell-based, human. To be noted: IC50 concentrations. As to the method: (§1) Cells were treated with DAP or representative compounds at IC50 concentrations and the changes in OCR and in the intracellular lactate formation were monitored.
PSN-1 cells (2 × 10^5) were seeded in a six-well plate in a growth medium (4 mL). After 24 h, cells were incubated for 60 min with IC50 concentrations of tested compounds. Changes in lactate production were assessed via colorimetric microplate assay (Lactate assay kit®, Merk, St. Louis, MO, USA) according to the manufacturer’s instructions. The intracellular lactate concentration was detected by measuring the absorbance of each well at 570 nm, using a Bio-Rad 680 microplate reader.

Series [10] deals with PSN-1 cells. The experiment in a line: Cellular oxygen consumption (Mito-ID Extracellular O2 Sensor Kit). It is filed as cell-based, human. To be noted: IC50 concentrations. The procedure: as §1
PSN-1 cells (2 × 10^5) were seeded in a six-well plate in growth medium (4 mL). After 24 h, cells were incubated for 60 min with IC50 concentrations of tested compounds. Subsequently, oxygen consumption was assessed by Mito-ID® Extracellular O2 Sensor Kit according to manufacturer’s instructions. Fluorescence was measured using a Tecan microplate reader (Ex 340–400 nm, Em 630–680 nm).

The subject of series [11] is BxPC-3 cells. The experiment in a line: 2D cytotoxicity, MTT assay, BxPC-3. It is filed as cell-based. To be noted: Homo sapiens, BXPC-3, 72 h, 72 h, MTT test, KRAS-wild-type BxPC-3; read-out: IC50 ±S.D. BxPC-3 (2D cytotoxicity). As to the method:
(§2) All newly synthesized compounds were then screened for their cytotoxic activity against two human PDAC cell lines, namely a KRAS-wild-type PDAC cell line (BxPC-3 cells) and a KRAS-mutant PDAC cell line (PSN-1 cells). […] The cytotoxicity parameters, expressed in terms of IC50 and obtained after 72 h of drug exposure by MTT assay, are listed in the Supplementary Materials (Table S2).
(§3) The growth inhibitory effect on tumor cells was evaluated by means of the MTT assay. Briefly, 3–8 × 10^3 cells/well, dependent upon the growth characteristics of the cell line, were seeded in 96-well microplates in growth medium (100 μL). After 24 h, the medium was removed and replaced with a fresh one containing the compound to be studied at the appropriate concentration. Triplicate cultures were established for each treatment. After 72 h, each well was treated with 10 μL of a 5 mg/mL MTT saline solution, and following 5 h of incubation, 100 μL of a sodium dodecyl sulfate (SDS) solution in HCl 0.01 M was added. After overnight incubation, cell growth inhibition was detected by measuring the absorbance of each well at 570 nm using a Bio-Rad 680 microplate reader. The mean absorbance for each drug dose was expressed as a percentage of the control untreated well absorbance and plotted vs. drug concentration. IC50 values, the drug concentrations that reduce the mean absorbance at 570 nm to 50% of those in the untreated control wells, were calculated by the four-parameter logistic (4-PL) model. The evaluation was based on means from at least four independent experiments.

Series [12] concerns PSN-1 cells. The experiment in a line: 2D cytotoxicity, MTT assay, PSN-1. Format: cell-based. To be noted: Homo sapiens, PSN1, 72 h, 72 h, MTT test, KRAS-mutant PSN-1; read-out: IC50 ±S.D. PSN-1 (2D cytotoxicity). The procedure:
as §2, §3

Where two headings read alike, the source gives them in different places.

Sequence of recombinant human PDK4 (Q16654 whole entry): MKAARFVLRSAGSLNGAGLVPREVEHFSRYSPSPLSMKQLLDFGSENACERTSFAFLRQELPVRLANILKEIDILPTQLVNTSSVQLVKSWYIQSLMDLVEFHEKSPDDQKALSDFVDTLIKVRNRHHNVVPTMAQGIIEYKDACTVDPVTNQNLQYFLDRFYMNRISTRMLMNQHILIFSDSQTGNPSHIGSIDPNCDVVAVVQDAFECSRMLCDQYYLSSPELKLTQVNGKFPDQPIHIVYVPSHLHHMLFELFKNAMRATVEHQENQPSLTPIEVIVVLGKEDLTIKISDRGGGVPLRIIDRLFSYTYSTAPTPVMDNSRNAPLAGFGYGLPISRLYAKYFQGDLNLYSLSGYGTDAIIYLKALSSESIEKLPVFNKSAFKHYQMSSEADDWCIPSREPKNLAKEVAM

In the case of `COc1ccc2c(c1)c(-c1nnc(N)nc1-c1c[nH]c3ccc(Br)cc13)cn2C` [6s], the melting point came out at 207.7 °C. The “effect on PDK4 activity (ATP consumption)” value in series [1] was “completely blocked”. Also, the “ROS basal level production / hydrogen peroxide formation” value in series [2] is listed as “increase in the ROS basal level production”. Further, the “percentage of cells with hypopolarized mitochondrial membrane potential (in words)” value (“percentage of cells” for short) in [3] is “significantly increased”. Also, the IC50 in [4] stood at 22.3 ± 2.3 µM. In series [5], the IC50 was determined as 0.09 ± 0.04 µM and the “effect on enzymatic activity of PDK1” value is on record as “totally suppressed”. The IC50 in series [6] amounted to 29.2 ± 1.4 µM. Also, the “decrease of HSP90 catalytic activity” value in [7] was 60–80%.
Compound `COc1ccc2c(c1)c(-c1nc(N)nnc1-c1cn(C)c3ccc(F)cc13)cn2C` [5k] returned a melting point of 239.5 °C. Moreover, in series [2], the “ROS basal level production / hydrogen peroxide formation” value is reported as “even higher than that provoked by antimycin”. The “percentage of cells” value in series [3] was “significantly increased”. The “reduction in phospho-PDHA1 (S232) levels” value in [8] was “very similar to that exerted by the reference PDK inhibitor DAP”. Moreover, the IC50 in series [4] stood at 15.9 ± 2.3 µM. Besides, in series [5], the IC50 amounted to 0.01 ± 0.003 µM and the “effect on enzymatic activity of PDK1” value is recorded as “totally suppressed”. The lactate production entry in series [9] was “more potent than DAP”. The half-inhibitory concentration (IC50) in [6] was determined as 67.9 ± 3.7 µM. Further, in series [7], the “decrease of HSP90 catalytic activity” value was 60–80%. Further, the “cellular oxygen consumption (OCR)” value in [10] is “more effective than DAP”.
`Cn1cc(-c2nnc(N)nc2-c2cn(C)c3ccccc23)c2cc(Br)ccc21` [6j] showed a melting point of 266 °C. In addition, in series [1], the “effect on PDK4 activity (ATP consumption)” value is given as “completely blocked”. The “ROS basal level production / hydrogen peroxide formation” value in series [2] is reported as “even higher than that provoked by antimycin”. Moreover, the “percentage of cells” value in [3] is reported as “significantly increased”. Also, the “reduction in phospho-PDHA1 (S232) levels” value in series [8] is “very similar to that exerted by the reference PDK inhibitor DAP”. The IC50 in series [4] came to 18.1 ± 2.3 µM. The “effect on enzymatic activity of PDK1” value in series [5] was “totally suppressed”. The IC50 in [5] (read-out: IC50 ±S.D. PDK1, four-parameter logistic model, three independent experiments) was determined as 0.07 ± 0.02 µM. The IC50 in [6] was found to be 41.2 ± 3.6 µM. In addition, in series [7], the “decrease of HSP90 catalytic activity” value is 60–80%. Further, the IC50 in [11] amounted to 0.2 ± 0.04 µM. Moreover, the IC50 in series [12] was determined as 0.6 ± 0.1 µM.

Source of the values: publication PMC9959349, “Discovery of the 3-Amino-1,2,4-triazine-Based Library as Selective PDK1 Inhibitors with Therapeutic Potential in Highly Aggressive Pancreatic Ductal Adenocarcinoma” (International Journal of Molecular Sciences, 2023).
